Source: PubChem BioAssay AID651897 (Broad Institute, 2012)

Target: cruzain (cruzipain), Trypanosoma cruzi
Test: cruzain protease inhibitors, dose response, biochemical, dry powder (AID 651897)
Conditions: purified recombinant cruzain, Z-Phe-Arg-AMC fluorescence

C[C@H]1CN([C@@H](C)CO)C(=O)c2cccc(NC(=O)c3ccncc3)c2O[C@@H]1CN(C)Cc1ccc(Oc2ccccc2)cc1
IC50: 13.2 µM
